Measurements taken from patent US7186754B2, “Use of creatine or creatine compounds for skin preservation” (Avicena Group, Inc., priority 1999, dated 2007).

How the values were obtained:
[1] = test system: creatine kinase; conditions: forward reaction, in vitro and in vivo; cited from earlier work
[2] = cited from earlier work
[3] = test system: mice, rats and chicks; conditions: fed to mice; cited from earlier work
[4] = test system: mice; conditions: up to 1% of diet for 2 weeks or over 4 weeks; cited from earlier work
[5] = test system: striatal tissue after malonate injections; assay: salicylate hydroxyl radical trapping and 3-nitrotyrosine in striatum after intrastriatal malonate injection; type: in vivo; conditions: 1% in diet for two weeks before intrastriatal malonate, FIG. 3
Text: FIG. 3 depicts the production of 2,3 and 2,5 DHBA and 3 nitrotyrosine after intrastriatal injection of malonate in control animals fed with creatine and those fed with cyclocreatine. **p is less than 0.01 compared with uninjected side; #p is less than 0.05 compared with DHBA elevation in controls. Eight animals were used in each group.
The salicylate hydroxyl radical-trapping method was used for measuring levels of hydroxyl radicals in striatal tissue after malonate injections. Eight animals in each group were fed either a normal diet or a diet enriched with 1% creatine or 1% cyclocreatine for two weeks before intrastriatal malonate injections. Animals were injected with 200 mg/kg salicylate intraperitoneally just before the malonate injections and were killed 1 hour later. […] An aliquot of supernatant was analyzed by HPLC with the 16-electrode electrochemical detection (Beal et. al., 1990). Salicylate, 2,3 and 2,5 DHBA, tyrosine, 3-nitrotyrosine were measured electrochemically by oxidation at 840, 240, 120, 600 and 840 mV respectively with retention times of 20.5, 9.4, 6.3, 10.5, 18.2 min respectively. The data were expressed as the ratio of 2,3 and 2,5 DHBA to salicylate to normalize the DHBA concentrations for differing brain concentrations of salicylate. […] 3-Nitrotyrosine and tyrosine concentrations were measured by HPLC with electrochemical detection (Matthews 1998). […]

[6] = test system: chicks; conditions: 1% cyclocreatine in diet, newly hatched chicks, cited from earlier work
[7] = 1% dietary cyclocreatine; cited from earlier work
[8] = test system: patients with cardiac diseases; conditions: up to 8 grams/day, intravenous injection; cited from earlier work

Row | Compound | phosphorylation by creatine kinase [1] | accumulation in different organs ([2]; animals fed e.g. 1% dietary cyclocreatine, mM concentrations) | uptake by muscle, heart and brain ([2]; rats receiving dietary 1% cyclocreatine) | tolerability [3] | gross adverse effects [4] | nitration of proteins (3-nitrotyrosine) induced by malonate [5] | levels of salicylate derivatives 2,3 DHBA and 2,5 DHBA after malonate ([5]; killed 1 hour later) | mortality ([6]; in the presence of antibiotics) | growth compared with control chicks [6] | antiviral activity [7] | adverse side effects [8]
1 | NC1=NCCN1CC(=O)O [cyclocreatine, 1-carboxymethyl-2-iminoimidazolidine] | phosphorylated efficiently | accumulation of cyclocreatine in different organs in mM concentrations | taken up by muscle, heart and brain | well-tolerated | without gross adverse effects | protective effects | protect against increases | without significant mortality | grew more slowly | observed | 
2 | N-phosphoryl creatine [creatine phosphate] |  |  |  |  |  |  |  |  |  |  | no adverse side effects
